# In US11517572B2, “Killing senescent cells and treating senescence-associated conditions using a SRC inhibitor and a flavonoid” (Mayo Foundation for Medical Education and Research, priority 2014, dated 2022):
# How the values were obtained:
# IMR90 cells = assay: Killing of radiation-induced senescent vs proliferating IMR90 fibroblasts; type: cell-based, human; conditions: enzastaurin at 0.25 0.5 and 2 μM
# Description: Senescence of human primary lung fibroblasts (IMR90) (IMR-90 (ATCC® CCL-186TH, Mannassas, Va.) was induced by irradiation. IMR90 cells in culture were subjected to 10 Gy radiation (Day-7). Four days after irradiation (Day-3), the culture media was changed. Three days after the media change (Day 0), the cells were exposed to media containing quercetin. Non-irradiated IMR90 cells were included as controls. Non-irradiated and irradiated IMR90 cells were exposed to quercetin at concentrations of 5, 10, 15, and 45 μM. Percent survival was determined four days after exposure to the drugs (Day 4). The number of viable cells was determined by using ATPLITE (Perkin-Elmer, Waltham, Mass.).
# In a separate experiment, IMR90 cells were irradiated as described above to induce senescence. Approximately 20 days after irradiation, the senescent cells and proliferating IMR90 cells were exposed to enzastaurin at concentrations of 0.25 0.5 and 2 μM.
# HUVEC cells = assay: Viability (ATPLITE) of senescent and proliferating HUVEC endothelial cells; type: cell-based, human; conditions: enzastaurin in combination with dasatinib, FIG. 4E, 48 hours
# Experimental: Human umbilical endothelial cells (HUVEC) (Lonza Group, Basel, Switzerland) were induced to senescence by exposure to 10 Gy radiation. Twenty days after irradiation, markers of cellular senescence (SA-β Gal) and growth arrest, determined by incorporation of BR dU, were evident. Non-senescent HUVEC cells used as control were plated at low density in culture media so that the cells were proliferating when exposed to the test drug. Senescent HUVEC cells and non-senescent, proliferating HUVEC cells were treated for 48 hours with quercetin, dasatinib, and enzastaurin as follows: (1) quercetin alone at 3.75, 7.5 and 15μ,M; (2) dasatinib alone at 25, 50, 100, and 200 nM; (3) enzastaurin alone at concentrations of 0.25 0.5 1 and 2 μM; (4) dasatinib at 100 nM plus quercetin at 7.5 μM; (5) with dasatinib at 50 nM plus quercetin at 7.5 μM; (6) dasatinib at 100 nM plus enzastaurin at 1.0 μM; (7) dasatinib at 100 nM plus enzastaurin at 0.5 μM; (8) dasatinib at 50 nM plus enzastaurin at 1.0 μM; (9) dasatinib at 50 nM plus enzastaurin at 0.5 μM; (10) quercetin at 15 μM and enzastaurin at 1.0 μM; (11) quercetin at 15 μM and enzastaurin at 1.0 μM; and (12) quercetin at 7.5 μM and enzastaurin at 1.0 μM. The number of viable cells was determined by ATPLITE (Perkin-Elmer, Waltham, Mass.). The data are presented in FIGS. 4A-4F as mean viability (ATP (μM))+SEM of 4.
# Senescent cells = assay: SA-β-Gal senescent cells in adipose tissue of high fat fed p16-3MR mice; type: in vivo; conditions: high fat diet four months, 25 mg/kg daily for five consecutive days, p=<0.004
# Experimental: Groups of p16-3MR mice (n=6) were fed a high fat diet (60% fat) for four months mice or a regular chow diet. The presence of senescence cells was determined by measuring luminescence (i.e., p16 positive cells). […] Animals were then treated with ganciclovir or vehicle to determine if removal of senescent cells reduced the presence of senescent cells in adipose tissue. Groups of animals were treated with ganciclovir (GCV) or vehicle. Ganciclovir (25 mg/kg) was administered daily for five consecutive days. The presence of senescent cells in perirenal, epididymal, or subcutaneous inguinal adipose tissue was detected by SA-β-Gal staining Data were analyzed by ANOVA.
# [1] = Insulin Tolerance Testing (ITT); type: in vivo, mice
# Experimental: Insulin sensitivity was also determined (Insulin Tolerance Testing (ITT)).
# [2] = Glucose tolerance testing in DIO INK-ATTAC,p16-3MR mice; type: in vivo; conditions: compared to vehicle-treated DIO mice
# Experimental: Three-month old INK-ATTAC,p16-3MR mice were fed a high fat diet for 4 months. The animals were then treated with ganciclovir or vehicle. DIO mice were treated with ganciclovir on September 1 (see FIG. 21).
# [3] = Glucose tolerance test and hemoglobin A1c in high fat fed p16-3MR mice; type: in vivo; conditions: high fat diet, 3 rounds of 25 mg/kg daily for five days
# Experimental: Groups of p16-3MR mice (n=9) were fed a high fat diet for four months mice or a regular chow diet. Animals were then treated with ganciclovir (3 rounds of 25 mg/kg ganciclovir administered daily for five consecutive days) or vehicle. A glucose bolus was given at time zero, and blood glucose was monitored at 20, 30, 60, and 120 minutes after delivering glucose to determine glucose disposal (see FIG. 18A). This was also quantified as “area under the curve” (AUC) (see FIGS. 18B and 18C), with a higher AUC value indicating glucose intolerance.
# [4] = Weight, body composition and food intake monitoring; type: in vivo; conditions: p16-3MR mice, high fat diet
# Description: Changes in weight, body composition, and food intake were also monitored.
SMILES,killing of proliferating IMR90 cells (IMR90 cells),selective killing of senescent IMR90 cells (IMR90 cells; approximately 20 days after 10 Gy irradiation),potentiating effect of dasatinib (HUVEC cells),presence of senescent cells in epididymal fat (SA-β-Gal) (Senescent cells),"decrease in blood glucose in insulin tolerance testing ([1]; p16-3MR mice fed a high fat diet, 0, 14, 30, 60, and 120 minutes)",change in insulin tolerance testing ([1]; wild-type mice),glucose tolerance (areas under the curve in glucose tolerance tests) [2],Hemoglobin A1c [3],glucose tolerance test AUC ([3]; vs vehicle-treated),body composition (percent of fat) [4],body weight [4],food intake (grams per week) [4]
"Cn1cc(C2=C(c3cn(C4CCN(Cc5ccccn5)CC4)c4ccccc34)C(=O)NC2=O)c2ccccc21 [Enzastaurin, 3-(1-Methylindol-3-yl)-4-[1-[1-(pyridin-2-ylmethyl)piperidin-4-yl]indol-3-yl]pyrrole-2,5-dione]",did not kill the proliferating cells,did not selectively kill the senescent cells,slight potentiating effect,–,–,–,–,–,–,–,–,–
Nc1nc(O)c2ncn(COC(CO)CO)c2n1 [ganciclovir],–,–,–,significant reduction,greater decrease in blood glucose,not observed,sustained and improved glucose tolerance,lower,significantly lower,did not alter,did not alter,did not alter
